Laboratory results published in PMC5572722, “Dimerization in tailoring uptake efficacy of the HSV-1 derived membranotropic peptide gH625” (Scientific Reports, 2017).
Positions of bridges follow the written chain, without caps; N, C: chain ends. Residues, ends and D or L forms follow the SMILES beside them. Chains are numbered I, II in the order given. No end group written: not given here.

What was measured:
[1] = lipid 0.1 mM, 25 °C, outer NBD reduced with 100 mM dithionite, average of three experiments
Experimental: The extent of lipid mixing between only the inner monolayers of vesicles in solution, labelled with NBD and Rho, was determined adding an aqueous reducing agent (dithionite) which eliminated the NBD fluorescence from the vesicle membranes’ outer monolayer.
Figure 2 Inner monolayer in DOPC/Chol 60/40 (mol/mol) (A) and DOPG/Chol 60/40 (mol/mol) (B). […] Lipid concentration is 0.1 mM. Percentage of inner monolayer fusion as a function of the peptide/lipid ratio is reported and each trace represents an average of three independent experiments.
Membrane fusion was monitored by the fluorescence resonance energy transfer assay (FRET)[70] at 25 °C. Two populations of LUVs, one labelled with 0.6 mol% of NBD (donor) and Rho (acceptor) and one unlabelled were mixed and the variation in NBD fluorescence due to membrane fusion was determined. After the addition of aliquots of peptides the change in donor emission (excitation wavelength 465 nm, emission wavelength 530 nm) was monitored. […] The 100% of fusion was determined upon the addition of Triton X-100 (0.05% v/v). All results are an average of at least three experiments. A cut off filter at 515 nm was used.
The dithionite was removed through size exclusion chromatography, Sephadex G-50 DNA Grade, (GE Healthcare, Pharmacia, Uppsala, Sweden) with buffer containing 10 mM TRIS, 100 mM NaCl, and 1 mM EDTA, pH 7.4.

[2] = Surface plasmon resonance binding to lipid bilayer, L1 chip, two-state model; settings: affinity constant of second step, K2 = ka2/kd2
Description: To investigate the mode of action of gH625-H7 and gH625-G7 and for comparisons with gH625[6], we used SPR. In a previous paper[7] we also reported the data for two control peptides: the melittin and the HIV fusion peptide (gp41-FP). Figure 6 reports the obtained sensorgrams of the binding and an increase of the RU signal intensity as a function of the peptide concentration can be observed. […] In particular, all the sensorgrams obtained for gH625[7] and gH625-G7 indicate the binding to the lipid surfaces is characterized by an initial fast association process which then slows down considerably towards the end of the peptide injection. The dissociation follows a similar trend, characterized by the signal falling rapidly at the end of injection when the peptide is no longer present and the buffer flow removes free or weekly bound peptide.
The average values for the rate constants obtained with the two-state model analysis are reported in Table 4 along with the affinity constant values (K A). The data clearly indicate the main influence on the overall binding constant of the fast association rate and slow dissociation rate of the first step.
We used a BIAcore 3000 analytical system (Biacore, Uppsala, Sweden) equipped with a L1 sensor chip which contains hydrophobic alkanethiol chains, with exposed polar head groups; a lipid bilayer was created by introducing liposomes to the chip. SUVs composed by DOPG/Chol (60/40) (80 μL, 0.5 mM) were applied to the chip surface at a flow rate of 2 μL/min. […] BSA was used as a negative control (25 μL, 50 μL/min […] in PBS) to confirm complete coverage of the nonspecific binding sites. Several sensorgrams were obtained with 30 μL of the peptide solutions injected at a flow rate of 5 μL/min, followed by PBS for 15 min to allow peptide dissociation. […]
Kinetic data were assessed through the χ^2 values, plots of the residuals from the model fitting and standard deviations. […]

[3] = Acceptor photobleaching FRET, GUV fusion; settings: NBD/Rhodamine GUVs mixed 1:4 with unlabelled GUVs, peptide:GUVs ratio 0.5
Description: Figure 10 Mean fluorescence of GUVs suspension resulting after gH625 or gH625-H7 administration, calculated by the AccPbFRET plug in of ImageJ. The FRET efficiency E is 0.729, calculated as follows: E = 1 − (F Donor quenched by acceptor/F Donor de quenched) (A). Time course of FRET effect due to gH625 or gH625-H7 administration to GUVs. Values are expressed as integrated density, defined as the mean gray value per the mean area. Each time point represents the same field acquired in both channels. Each data set represents the mean of at least 10 GUVs for each field (B,C).
To evaluate the fusion of GUVs due to the addition of gH625 and gH625-H7, a slightly modified protocol for acceptor photobleaching FRET was performed. […] An aliquot of the mix was charged in the Burker’s chamber under Axioskop (Zeiss) fluorescence microscope; images were acquired using Axiocam Mrc5 CCD camera (Zeiss) in both at 525 nm and 615 nm and analysed with the Physiology module of Axiovision software 4.8 (Zeiss) to calculate the basic fluorescence of the donor. Samples were then treated with gH625 and gH625-H7 to a peptide:GUVs ratio of 0.5 and images were immediately acquired to calculate the fluorescence of the donor and the photobleaching of the acceptor (only used as a control for the amount of bleaching) after the exposure to peptides. […]

Row | Molecule | fusion of the inner monolayer, DOPC/Chol LUVs [1] | K2 [2] | fusion of the inner monolayer, DOPG/Chol LUVs [1] | increase of donor (NBD) fluorescence compared to GUVs alone [3]
1 | CC[C@H](C)[C@H](NC(=O)[C@H](CC(C)C)NC(=O)[C@H](C)NC(=O)[C@H](CC(N)=O)NC(=O)[C@H](Cc1ccc(O)cc1)NC(=O)[C@H](Cc1c[nH]cn1)NC(=O)[C@H](C)NC(=O)[C@H](Cc1c[nH]c2ccccc12)NC(=O)[C@H](CCCNC(=N)N)NC(=O)[C@@H](NC(=O)[C@H](CC(C)C)NC(=O)[C@@H](NC(=O)[C@H](CO)NC(=O)[C@H](C)NC(=O)[C@H](CC(C)C)NC(=O)CNC(=O)[C@@H](N)Cc1c[nH]cn1)[C@@H](C)O)[C@@H](C)O)C(=O)N[C@@H](CCCNC(=N)N)C(=O)N[C@@H](C)C(=O)N[C@@H](Cc1ccccc1)C(=O)NCC(=O)NCC(=O)NCC(=O)N[C@@H](CCCCN)C(=O)N[C@@H](CCCCN)C(=O)N[C@@H](CCCCN)C(=O)N[C@@H](CCCCN)C(N)=O [gH625-G7] (H-HGLASTLTRWAHYNALIRAFGGGKKKK-NH2) | only a small fusion | 5.72 | – | –
2 | I: HGLASTLTRWAHYNALIRAFGCGKKKK-NH2 / II: HGLASTLTRWAHYNALIRAFGCGKKKK-NH2 (disulfide I:22-II:22) [gH625-H7] | complete fusion | 3.89 | complete fusion | 3.92 fold
3 | CC[C@H](C)[C@H](NC(=O)[C@H](CC(C)C)NC(=O)[C@H](C)NC(=O)[C@H](CC(N)=O)NC(=O)[C@H](Cc1ccc(O)cc1)NC(=O)[C@H](Cc1c[nH]cn1)NC(=O)[C@H](C)NC(=O)[C@H](Cc1c[nH]c2ccccc12)NC(=O)[C@H](CCCNC(=N)N)NC(=O)[C@@H](NC(=O)[C@H](CC(C)C)NC(=O)[C@@H](NC(=O)[C@H](CO)NC(=O)[C@H](C)NC(=O)[C@H](CC(C)C)NC(=O)CNC(=O)[C@@H](N)Cc1c[nH]cn1)[C@@H](C)O)[C@@H](C)O)C(=O)N[C@@H](CCCNC(=N)N)C(=O)N[C@@H](C)C(=O)N[C@@H](Cc1ccccc1)C(N)=O [gH625] (H-HGLASTLTRWAHYNALIRAF-NH2) | only a small fusion | 0.41 | – | 3.71 fold
